As usually defined, the IC50 is the point on the concentration scale where inhibition reaches its midpoint. As usually defined, the MIC is the lowest concentration that inhibits growth of the organism.

The record followed here is ChEMBL document CHEMBL1772945, “Bioactive compounds from the scale insect pathogenic fungus Conoideocrella tenuis BCC 18627” (J Nat Prod, 2011).

The subject of assay [1] is Plasmodium falciparum. As to the kind of experiment: Antimalarial activity against multi-drug-resistant Plasmodium falciparum K1 by microculture radioisotope technique. It counts as functional, organism-based.
Assay [2] relates to Human alphaherpesvirus 1. As to the kind of experiment: Antiviral activity against HSV-1 by green fluorescent protein microplate assay. It counts as functional, organism-based.
The test system of assay [3] is Mycobacterium tuberculosis. Description: Antitubercular activity against Mycobacterium tuberculosis H37Ra by green fluorescent protein microplate assay. It counts as functional.
The test system of assay [4] is KB. Description: Cytotoxicity against human KB cells after 45 hrs by resazurin microplate assay. It counts as functional, cell-based. On the technique in general: Resazurin is reduced to fluorescent resorufin, in cell work by metabolically active cells.
Assay [5] concerns MCF7. Description: Cytotoxicity against human MCF7 cells after 45 hrs by resazurin microplate assay. It counts as functional, cell-based. As to conditions: MCF7, 45 h.
The subject of assay [6] is Vero. As to the kind of experiment: Cytotoxicity against african green monkey Vero cells by green fluorescent protein microplate assay. It counts as cell-based. As to conditions: Chlorocebus sabaeus.
In assay [7] the test system is NCI-H187. As to the kind of experiment: Cytotoxicity against human NCI-H187 cells after 45 hrs by resazurin microplate assay. It counts as functional, cell-based. The conditions noted are these: NCI-H187, 45 h.

In brackets after ≈: the same amount, converted by molar mass. Structures can show the parent of a compound that is named as a salt.

Regarding `COc1cc(OC)c2c(O)c3c(c(-c4c(OC)cc(OC)c5c(O)c6c(cc45)[C@H](OC(C)=O)[C@H](C)OC6)c2c1)[C@H](OC(C)=O)[C@H](C)OC3`, the IC50 in assay [1] was 15 µM; in assay [2], over 75 µM; in assay [4], 15 µM; in assay [5], 37 µM; in assay [6] it was over 75 µM; in assay [7] it was 12 µM. In addition, the minimal inhibitory concentration (MIC) in assay [3] was over 75 µM.
As for `CC(C)(O)[C@H]1CC[C@]2(C)[C@H]3C[C@@H](O)[C@@H]4[C@@]5(C)CCCC(C)(C)[C@@H]5[C@H](O)C[C@@]4(C)[C@]3(CO)CC[C@@H]12`, the IC50 in assay [1] is 9.8 µM; in assay [2] it was 14 µM; in assay [4], 5.6 µM; in assay [5], 15 µM; in assay [6], 47 µM; in assay [7], 47 µM. The compound also showed an MIC in assay [3] of 52 µM (≈ 24.8 µg/mL).
In the case of `COc1cccc2c1C(=O)c1c(O)c3c(c(O)c1C2=O)C[C@@](O)(C(=O)CO)C[C@@H]3O[C@H]1C[C@H](N)[C@H](O)[C@H](C)O1` [DOXORUBICIN HYDROCHLORIDE], the IC50 in assay [4] came to 0.27 µM; in assay [5], 4.9 µM; in assay [7], 0.23 µM.
Take `CC(C)(O)[C@H]1CC[C@]2(C)[C@H]3CC[C@@H]4[C@@]5(C)CCCC(C)(C)[C@@H]5[C@H](O)[C@H](O)[C@@]4(C)[C@]3(C)CC[C@@H]12`: the IC50 is over 22 µM in assay [1]; over 109 µM in assay [2]; over 109 µM in assay [4]; over 109 µM in assay [5]; over 109 µM in assay [6]; over 109 µM in assay [7]. For the same compound, in assay [3], the minimum inhibitory concentration (MIC) is over 109 µM.
`Cc1c2ccncc2c(C)c2c1[nH]c1ccccc12` [ELLIPTECINE] gave an IC50 in assay [6] of 12 µM.
Regarding `CC(C)(O)[C@H]1CC[C@]2(C)[C@H]3C[C@@H](O)[C@@H]4[C@@]5(C)CCCC(C)(C)[C@@H]5[C@H](O)C[C@@]4(C)[C@]3(C=O)CC[C@@H]12`, the half-inhibitory concentration (IC50) is over 21 µM in assay [1]; 21 µM in assay [2]; 10 µM in assay [4]; 28 µM in assay [5]; 69 µM in assay [6]; 68 µM in assay [7]. The compound further had an MIC in assay [3] of over 105 µM.
With `Nc1nc2c(ncn2COCCO)c(=O)[nH]1` [ACYCLOVIR], the IC50 in assay [2] amounted to 17 µM.
Regarding `COc1cc(OC)c2c(O)c3c(c(-c4c5c(c(O)c6c(OC)cc(OC)cc46)CO[C@@H](C)[C@H]5OC(C)=O)c2c1)[C@H](OC(C)=O)[C@H](C)OC3`, the IC50 in assay [1] was 10 µM; in assay [2], over 75 µM; in assay [4], 4.4 µM; in assay [5] it was 22 µM; in assay [6], over 75 µM; in assay [7] it was 71 µM. The minimum inhibitory concentration (MIC) in assay [3] was over 75 µM.
